We go through one compound from patent publication US20250268871A1, “NEW CRYSTAL FORM OF NITROGEN-CONTAINING TRICYCLIC COMPOUND AND USE THEREOF” (SUNSHINE LAKE PHARMA CO., LTD., priority 2021, published 2025).

Each structure is given as a SMILES string.

Series [1] is described as follows: Pharmacokinetic experiment, oral capsules in Beagle dogs. The settings on record: dog, plasma, male Beagle dogs, 5 mg/kg. In kind it is in vivo. The protocol: The crystal form of the compound having Formula (I) was filled into capsules, which were used for oral administration.
Three male Beagle dogs weighing 8-12 kg were orally administered with capsules containing the test sample at a dose of 5 mg/kg, and blood samples were taken at time points of 0.25 h, 0.5 h, 1.0 h, 2.0 h, 4.0 h, 6.0 h, 8.0 h and 24 h. Standard curve was plotted based on concentrations of the samples in a suitable range, the concentration of the test sample in the plasma sample was measured and quantified by AB SCIEX API4000 LC-MS/MS at MRM mode. Pharmacokinetic parameters were calculated according to drug concentration-time curve using a noncompartmental method by WinNonLin 6.3 software.

Series [2] is described as follows: Stability experiment (high-temperature, high-humidity, photostability). In kind it is physicochemical. As for the experimental part:
(1) High-temperature test: A batch of the test sample was taken and put into a flat weighing bottle, divided into ≤5 mm thick thin layer. The sample was placed at 60° C. for 30 days. The sample was then sampled at day 5, day 13 and day 30, and the change of the sample's color was observed. The purity of the sample was detected by HPLC.
(2) High-humidity test: A batch of the test sample was taken and put into a flat weighing bottle, divided into ≤5 mm thick thin layer. The sample was placed at 25° C. and RH for 90%±5% for 30 days. The sample wad sampled at day 5, day 13 and day 30, and the change of the sample's color was observed. The purity of the sample was detected by HPLC.
(3) Photostability test: A batch of the test sample was taken into a flat weighing bottle, divided into ≤5 mm thick thin layer. The sample was placed in an opened light box (with UV) at the illuminance 4500+5001x, UV light ≥0.7w/m2 for 30 days. The sample was then sampled at day 5, day 13 and day 30, and the change of the sample's color was observed. The purity of the sample was detected by HPLC.

Series [3] in a line: Hygroscopicity experiment (dynamic vapor sorption). The format is physicochemical. The settings on record: relative humidity of 80%, criterion of hygroscopic weight gain. The protocol: The description of the hygroscopic characteristics and the definition of the hygroscopic weight gain (Appendix 9103 of Chinese Pharmacopoeia 2020 Edition, Guidelines for Drug Hygroscopicity Tests, experimental conditions: 25° C.±1° C., 80%+2% relative humidity) are described in the table below:
The hygroscopicity of the present invention is measured using the DVS INT-Std dynamic moisture and gas adsorption analyzer of the Surface Measurement Systems Company in UK. The humidity test range was 0%-95%, the air flow was 200 mL/min, the temperature was 25° C., test point: take one test point per […] 5% humidity.
An appropriate amount of the test sample was taken and the hygroscopicity of the test sample was tested by dynamic moisture adsorption device. It can be seen from FIG. 4 that the weight gain of the crystal form J according to the present invention is more than 0.2% but less than 2% after equilibrium under the condition of a relative humidity of 80%. […] Therefore, the crystal form J of the invention is not susceptible to deliquescent under the influence of high humidity, which is convenient for the long-term storage of the medicine.

For the compound `O=C(O)c1ccc2c(c1)Oc1ccc(OCc3c(-c4c(Cl)cccc4Cl)noc3C3CC3)nc1C1(CC1)C2` [crystal form J, 2-((5-cyclopropyl-3-(2,6-dichlorophenyl)isoxazol-4-yl)methoxy)-10H-spiro[benzo[6,7]oxepino[3,2-b]pyridine-11,1′-cyclopropane]-7-carboxylic acid], in series [1], the exposure AUC(0-t) (usually exposure summed from dosing to a finite time, without extrapolation to infinity) was determined as 885 ng·h/mL; the peak level (Cmax) was 554 ng/mL; the Tmax (in general, the time from dosing to the highest level) was 40 min. In series [2] (60° C., 25° C. and RH 90%±5%, light box with UV, 30 days, sampled at day 5, 13, 30), the “change in appearance and chemical purity (HPLC)” value is “no obvious changes in the appearance and chemical purity”. For the same compound, the crystal structure stability result in series [2] (high temperature, high humidity and/or lighting conditions) is “remains basically unchanged”. In series [3], the hygroscopic characteristics result is recorded as “lightly hygroscopic”.
